Test results taken from patent US7863446B2, “Heterocycles” (Orchid Research Laboratories Limited, priority 2006, dated 2011).

Tests used:
DU-145 = assay: Anti-cancer screen (MTT), DU-145; assay type: cell-based; conditions: Homo sapiens, DU-145, 48 hours
HCT-116 = assay: Anti-cancer screen (MTT), HCT-116; assay type: cell-based; conditions: Homo sapiens, HCT-116, 48 hours
Experimental: (§1) Experimental drugs are screened for anti-cancer activity in three cell lines for their GI50, TG1 and LC50 values (using 5 concentrations for each compound). The cell lines are maintained in DMEM containing 10% fetal bovine serum. 96 well microtiter plates are inoculated with cells in […] for 24 hours at 37° C., 5% CO2, 95% air and 100% relative humidity. 5000 HCT116 cells/well, 5000 NCIH460 cells/well, 10000 U251 cells/well and 5000 MDAMB231 cells/well are plated. A separate plate with these cell lines is also inoculated to determine cell viability before the addition of the compounds (T0).
(§2) Addition of Experimental Drugs
(§3) Following 24-hour incubation, experimental drugs are added to the 96 well plates. Each plate contains one of the above cell lines and the following in triplicate: 5 different concentrations (0.01, 0.1, 1, 10 and 100 μM) of 4 different compounds, appropriate dilutions of a cytotoxic standard and control (untreated) wells. Compounds are dissolved in dimethylsulfoxide (DMSO) to make 20 mM stock solutions, on the day of drug addition and frozen at −20° C. Serial dilutions of these 20 mM stock solutions are made in complete growth medium such that 100 μL of these drug solutions in medium, of final concentrations equaling 0.01, 0.1, 1, 10 and 100 μM can be added to the cells in triplicate. Standard drugs whose anti-cancer activity has been well documented and which are regularly used are doxorubicin and SAHA.
(§4) Cells are incubated with compounds for 48 hours followed by the addition of 10 μL 3-(4,5-Dimethyl-2-thiazolyl)-2,5-diphenyl-2H-tetrazolium (MTT) solution per well and a subsequent incubation at 37° C., 5% CO2, 95% air and 100% relative humidity, protected from light. After 4 hours, well contents are aspirated carefully followed by addition of 150 μL DMSO per well. Plates are agitated to ensure solution of the formazan crystals in DMSO and absorbance read at 570 nm.
(§5) Calculation of GI50, TGI and LC50
(§6) Percent growth is calculated for each compound's concentration relative to the control and zero measurement wells (T0; viability right before compound addition).
(§7) If a test well's O.D. value is greater than the T0 measurement for that cell line % Growth=(test−zero)/(control−zero)×100
(§8) If a test well's O.D. value is lower than the T0 measurement for that cell line, then % Growth=(test−zero)/zero×100 Plotting % growth versus experimental drug concentration, GI50 is the concentration required to decrease % growth by 50%; TGI is the concentration required to decrease % growth by 100% and LC50 is the concentration required to decrease % growth by 150%.

NCI-H460 = assay: Anti-cancer screen (MTT), NCI-H460; assay type: cell-based; conditions: Homo sapiens, NCI-H460, 48 hours
Experimental: as §1, §2, §3, §4, §5, §6, §7, §8

[1] = molecular target: purified recombinant COX-1 (Homo sapiens, UniProt P23219); assay: COX-1 enzyme based assay; assay type: biochemical; conditions: NA = No activity, read-out: % Inhibition in rEnzyme Assay COX-1
Chain of purified recombinant COX-1 (P23219 24-599): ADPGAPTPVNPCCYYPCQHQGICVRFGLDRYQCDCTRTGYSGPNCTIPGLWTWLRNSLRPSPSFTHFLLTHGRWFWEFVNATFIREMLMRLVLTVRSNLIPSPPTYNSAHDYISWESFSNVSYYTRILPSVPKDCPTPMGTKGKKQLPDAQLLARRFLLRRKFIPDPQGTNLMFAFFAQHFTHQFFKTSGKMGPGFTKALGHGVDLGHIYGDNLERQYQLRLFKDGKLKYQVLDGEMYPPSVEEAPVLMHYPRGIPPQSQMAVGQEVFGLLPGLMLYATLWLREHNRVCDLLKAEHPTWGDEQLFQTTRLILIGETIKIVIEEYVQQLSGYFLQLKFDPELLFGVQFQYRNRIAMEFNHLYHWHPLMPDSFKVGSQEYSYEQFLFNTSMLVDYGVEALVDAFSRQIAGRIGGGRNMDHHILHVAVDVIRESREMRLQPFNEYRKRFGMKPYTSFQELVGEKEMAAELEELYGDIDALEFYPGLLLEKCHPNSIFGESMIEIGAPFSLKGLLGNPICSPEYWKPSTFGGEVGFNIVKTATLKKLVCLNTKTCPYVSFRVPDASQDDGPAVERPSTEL
Method in brief: (§9)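 Purified recombinant enzyme converted arachidonic acid to PGH2 at 37° C with or without test compound; stopped with 1M HCl after 2 minutes. PGH2 reduced by SnCl2 to PGF2α, quantified by enzyme immunoassay; inhibition inferred from reduced prostanoid.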

[2] = molecular target: T1, purified recombinant COX-2 (Homo sapiens, UniProt P35354); assay: COX-2 enzyme based assay; assay type: biochemical; conditions: NA = No activity, read-out: % Inhibition in rEnzyme Assay COX-2
T1 sequence (P35354 18-604): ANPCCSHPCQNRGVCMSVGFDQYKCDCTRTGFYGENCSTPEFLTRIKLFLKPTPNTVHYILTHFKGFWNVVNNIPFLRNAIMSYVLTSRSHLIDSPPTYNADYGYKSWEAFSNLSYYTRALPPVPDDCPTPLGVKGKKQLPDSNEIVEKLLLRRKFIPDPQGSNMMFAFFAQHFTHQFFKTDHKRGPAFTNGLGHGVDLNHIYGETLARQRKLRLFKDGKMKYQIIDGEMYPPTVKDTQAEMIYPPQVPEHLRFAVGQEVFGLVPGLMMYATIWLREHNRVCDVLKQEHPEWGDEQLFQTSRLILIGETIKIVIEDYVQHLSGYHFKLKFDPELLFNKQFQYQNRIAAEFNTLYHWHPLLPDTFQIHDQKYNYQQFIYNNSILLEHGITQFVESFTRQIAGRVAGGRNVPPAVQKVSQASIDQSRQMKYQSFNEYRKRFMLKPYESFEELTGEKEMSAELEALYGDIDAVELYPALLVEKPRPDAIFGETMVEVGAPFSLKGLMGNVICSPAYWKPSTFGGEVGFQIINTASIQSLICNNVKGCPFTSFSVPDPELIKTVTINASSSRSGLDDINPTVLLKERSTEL
Method in brief: as §9

PDE4 = PDE4 activity; assay type: biochemical; conditions: source Human U937 cells
Experimental: PDE4 Activity PDE4 inhibition was measured by following a literature assay procedure (Cortizo J et al., Br J Pharmacol., 1993, 108: 562-568. The assay method involves the following conditions. • Source: Human U937 cells • Substrate: 1.01 μM [^3H] camp+camp • Vehicle: 1% DMSO • Pre-Incubation Time/Temperature: 15 minutes at 25° C. • Incubation Time/Temperature. 20 minutes at 25° C. • Incubation buffer: 50 mM Tris-HCl, pH 7.5, 5 mM MgCl2 • Quantitation method: Quantitation of [^3H] Adenosine • Significance criteria: >50% of max stimulation or inhibition The results are tabulated as shown in the table XIII.

TNF-α = assay: In vitro measurement of TNF-α in human PBMC (LPS stimulated); assay type: cell-based; conditions: for inhibition at 1 µM: NA = No activity, read-out: TNF-α Inhibition (%) at Conc. (1 μM); for inhibition at 10 µM: read-out: TNF-α Inhibition (%) at Conc. (10 μM)
Method in brief: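 Healthy-volunteer PBMC (0.5 million/well) in RPMI were pre-incubated with compound 15 min at 37 °C. They were then stimulated with E. coli B4 LPS 1 μg/ml for 18 h at 37 °C, 5% CO2. TNF-α in culture medium was measured by ELISA.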

IL-6 = assay: In vitro measurement of IL-6 in human PBMC (LPS stimulated); assay type: cell-based; conditions: 10 μM, read-out: IL-6 Inhibition (%) Conc. (10 μM)
Experimental: In Vitro Measurement of Interleukin-6(IL-6)
This assay determins the effect of test compounds on the production of IL-6 in human PBMC (Physiol. Res. 52: 593-598, 2003). Compounds were tested for their ability to inhibit the activity of IL-6 in human PBMC. PBMC were isolated from blood using BD Vacutainer CPT™ Cell preparation tube (BD Bio Science) and suspended in RPMI medium. The test compounds were pre-incubated with PBMC (0.5 million/incubation well) for 15 minutes at 37° C. and then stimulated with Lipopolysaccharide (Escherichia coli: B4; 1 μg/ml) for 18 hours at 37° C. in 5% CO2. The levels of IL-6 in cell culture medium were estimated using enzyme-linked immunosorbent assay performed in a 96 well format as per the procedure of the manufacturer (Cayman Chemical, Ann Arbor, USA).

IL-12 = IL-12 inhibition; assay type: cell-based
Male wistar rats = assay: Carrageenan induced paw edema test in rat; assay type: in vivo; conditions: oral, 3 hours after carrageenan
Experimental: Carrageenan Induced Paw Edema Test in Rat
The carrageenan paw edema test was performed as described by Winter et al (Proc. Soc. Exp. Biol. Med, 111, 544, 1962). Male wistar rats were selected with body weights equivalent within each group. The rats were fasted for 18 hours with free access to water. The rats were dosed orally with the test compound suspended in the vehicle containing 0.25% carboxymethylcellulose and 0.5% Tween 80. The control rats were administered with vehicle alone. After an hour, the rats were injected with 0.1 ml of 1% Carrageenan solution in 0.9% saline into the sub-plantar surface of the right hind paw. Paw volume was measured using digital plethysmograph before and after 3 hours of carrageenan injection. The average of foot swelling in drug treated animals was compared with that of the control animals. Anti-inflammatory activity was expressed as the percentage inhibition of edema compared with control group [Arzneim-Forsch/Drug Res., 43 (I), 1, 44-50, 1993; Representative results of edema inhibition are shown in the Table VI.

Animals (male wistar) = assay: Ulcerogenic potential; assay type: in vivo; conditions: oral, 4 hours after administration
Experimental: In order to evaluate the compound's role on the ulcer formation, the animals were sacrificed and the stomach was taken out and flushed with 1% formalin. Animals (male wistar. 200 g) were fasted for 18 hours with free access to water and the test compounds were suspended in 0.5% Tween 80 and 0.25% CMC (carboxymethylcellulose) solution to make a uniform suspension. After 4 hours of oral administration of test compounds, all the animals were sacrificed by cervical dislocation. The stomach was dissected carefully and filled up with a sterile saline solution and embedded in 6% formalin solution. […] The test compound treated groups were compared with the vehicle treated groups. […]

`CS(=O)(=O)c1ccc(-c2nc(C(F)(F)F)nc(N3CCN(C(=O)c4ccc([N+](=O)[O-])o4)CC3)c2-c2ccccc2)cc1` [Example 38, 6-[4-(Methylsulfonyl)phenyl]-4-[4-(5-nitro-2-furoyl)piperazin-1-yl]-5-phenyl-2-(trifluoromethyl)pyrimidine] was tested, and the GI50 (DU-145) was 4 µM, the GI50 (HCT-116) was 6 µM and the GI50 (NCI-H460) was 3.75 µM.

`CNS(=O)(=O)c1ccc(-c2c(N)nc(C(F)(F)F)nc2-c2ccc(S(C)(=O)=O)cc2)cc1` [Example 2, 4-{4-Amino-6-[4-(methylsulfonyl)phenyl]-2-(trifluoromethyl)pyrimidin-5-yl}-N-methylbenzenesulfonamide] was tested, and the inhibition at 1 µM ([1]; 1 μM) was 33.8%, the inhibition at 10 µM ([1]; 10 μM) was 50.4% and the inhibition at 1 µM ([2]; 1 μM) was 17.3%. It also gave an inhibition at 10 µM ([2]; 10 μM) of 48.9%, a GI50 (DU-145) of 3.5 µM and a GI50 (HCT-116) of 2.5 µM. The GI50 (NCI-H460) was 8.5 µM.

For `NS(=O)(=O)c1cccc(-c2c(-c3ccc(F)cc3)nc(C(F)(F)F)nc2N2CCN(C(=O)C(F)(F)F)CC2)c1` [Example 108, 3-{6-(4-Fluorophenyl)-4-[4-(trifluoroacetyl)piperazin-1-yl]-2-(trifluoromethyl)pyrimidin-5-yl}benzenesulfonamide], the “PDE4 inhibition at 10 μM (%)” value (PDE4) was 90%.

Work on `CS(=O)(=O)c1ccc(-c2nc(C(F)(F)F)nc(N3CCN(S(=O)(=O)c4ccc(F)cc4Cl)CC3)c2-c2ccccc2)cc1` [Example 157, 4-{4-[(2-Chloro-4-fluorophenyl)sulfonyl]piperazin-1-yl}-6-(4-methylsulfonylphenyl)-5-phenyl-2-(trifluoromethyl)pyrimidine] yielded an inhibition at 1 µM (TNF-α) of 33.5%, an inhibition at 10 µM (TNF-α) of 91.3% and an inhibition at 10 µM (IL-6) of 65.7%. It also gave an inhibition at 1 µM (IL-12; read-out: IL-12 Inhibition (%) Conc. (1 μM)) of 69% and an inhibition at 10 µM (IL-12; read-out: IL-12 Inhibition (%) Conc. (10 μM)) of 98.3%.

With `NS(=O)(=O)c1cccc(-c2nc(C(F)(F)F)nc(-n3ccnc3)c2-c2ccccc2)c1` [Example 166, 3-[4-(1H-imidazol-1-yl)-5-phenyl-2-(trifluoromethyl)pyrimidin-6-yl]benzenesulfonamide] the “PDE4 inhibition at 10 μM (%)” value (PDE4) was 82%.

With `NS(=O)(=O)c1cccc(-c2c(-c3ccccc3)nc(C(F)(F)F)nc2N2CCC(=O)CC2)c1` [Example 178, 3-[6-Phenyl-4-(4-oxopiperidin-1-yl)-2-(trifluoromethyl)pyrimidin-5-yl]benzenesulfonamide] the “PDE4 inhibition at 10 μM (%)” value (PDE4) was 84%.

With `CNc1nc(C(F)(F)F)nc(-c2ccc(S(C)(=O)=O)cc2)c1-c1ccc(S(=O)(=O)NC)cc1` [Example 5, 4-{4-(Methylamino)-6-[4-(methylsulfonyl)phenyl]-2-(trifluoromethyl)pyrimidin-5-yl}-N-methylbenzenesulfonamide] the inhibition at 1 µM (TNF-α) was 35.9%, the inhibition at 10 µM (TNF-α) was 56.3% and the “Inhibition of edema (%) at 5 mg/kg” value (Male wistar rats) was 14.5%. The “Ulcer incidence at 5 mg/kg” value (Animals (male wistar)) was “Nil”.
